US10159640B2, “Prebiotic oral care compositions containing amino acids” (COLGATE-PALMOLIVE COMPANY, priority 2013, dated 2018)

Tests used:
Format in all cases: cell-based
Actinomyces naeslundii = assay: Biofilm growth assay in BHI, crystal violet; conditions: control = 1
Experimental: (§1) The increase in biofilm formation of the tested bacteria in response to selected compounds (Met-Pro, Phe-Glu) was investigated by setting up biofilm growth assays in a nutritionally rich medium (brain heart infusion broth (BHI), Oxoid), over 48 hours. Late exponential growth phase liquid cultures were prepared by transferring the respective bacterium from blood agar plates to BHI and overnight incubation at 37° C. in an anaerobic atmosphere for A. viscosus, V. parvula, F. nucleatum, P. gingivalis, P. intermedia, T. forsythia, A. naeslundii, and C. sputigena, and in a 5% CO2 environment for S. salivarius, S. sanguinis, S. mitis, A. actinomycetemcomitans, S. mutans, and S. gordonii. Overnight cultures were transferred to BHI and adjusted to a concentration of 1×10^7 CFU/ml by measuring the optical density at 600 nm (OD600) (BioRad SmartSpec 3000). For each strain, 200 μl of the bacterial suspension was added to a 96-well plate containing 20 μl of the respective di-peptides. Final concentrations of the di-peptides were set to 5, 10, 20 and 25 μmol/ml. […] Additionally, for each bacterium tested, a background control, to correct for background staining, was added. This background control contained the bacterium tested and 0.03 weight % chlorhexidine, as an antiseptic. Plates were incubated as previously described. After 48 hrs the supernatant was removed from the wells of the plates. The wells were washed twice with 1×100 μL PBS (phosphate buffered saline), fixed for 20 minutes with 96% vol. ethanol (96% vol. solution in water) and the biofilm retained at the bottom of the wells was stained with 1 weight % crystal violet (1 weight % solution in water). The bound dye was dissolved with 5% vol. acetic acid (5% vol. solution in water). Quantification of the stained biofilm was performed by measuring the absorbance at 630 nm using a Multiskan Ascent microplate reader (Thermo Scientific).
(§2) The experiment was carried out on three different days (thus providing 3 biological replicas) and each day the experiment was carried out in quadruple (thus providing 4 technical replicas) for each combination of bacterium with dipeptide and for each control. For each day and for each combination, the average (mean) of the values obtained (as detailed above) for the four technical replicas was calculated to provide a single value for each combination on each day. The values shown in Tables 7 to 8, below, are the average (mean) of the three single values obtained for each combination of bacterium with dipeptide.

Actinomyces viscosus = assay: Biofilm growth assay in BHI, crystal violet; conditions: control = 1
Experimental: as §1, §2

[1] = system: Aggregatibacter actinomycetemcomitans; assay: Biofilm growth assay in BHI, crystal violet; conditions: control = 1
Experimental: as §1, §2

Capnocytophaga sputigena = assay: Biofilm growth assay in BHI, crystal violet; conditions: control = 1
Experimental: as §1, §2

Fusobacterium nucleatum = assay: Biofilm growth assay in BHI, crystal violet; conditions: control = 1
Experimental: as §1, §2

Porphyromonas gingivalis = assay: Biofilm growth assay in BHI, crystal violet; conditions: control = 1
Experimental: as §1, §2

Prevotella intermedia = assay: Biofilm growth assay in BHI, crystal violet; conditions: control = 1
Experimental: as §1, §2

Streptococcus gordonii = assay: Biofilm growth assay in BHI, crystal violet; conditions: control = 1
Experimental: as §1, §2

Streptococcus mitis = assay: Biofilm growth assay in BHI, crystal violet; conditions: control = 1
Experimental: as §1, §2

Streptococcus mutans = assay: Biofilm growth assay in BHI, crystal violet; conditions: control = 1
Experimental: as §1, §2

Streptococcus salivarius = assay: Biofilm growth assay in BHI, crystal violet; conditions: control = 1
Experimental: as §1, §2

Streptococcus sanguinis = assay: Biofilm growth assay in BHI, crystal violet; conditions: control = 1
Experimental: as §1, §2

Tannerella forsythia = assay: Biofilm growth assay in BHI, crystal violet; conditions: control = 1
Experimental: as §1, §2

Veillonella parvula = assay: Biofilm growth assay in BHI, crystal violet; conditions: control = 1
Experimental: as §1, §2

[2] = system: beneficial oral bacteria and pathogenic oral bacteria; assay: Biofilm growth, whole panel: prebiotic effect; conditions: threshold value of 1.6
Experimental: Substrates that were able to increase the biofilm mass of at least one of the above beneficial bacteria while not or only minimally increasing the biofilm mass of the pathogenic bacteria are considered to be prebiotic compounds.
as §1, §2
This value was selected in order to exclude low-stimulating metabolites and avoid false positive results.

## Phe-Glu
Actinomyces naeslundii; 5 μmol/ml
  biofilm growth: OD 630 nm (crystal violet) at 48 hrs divided by OD of control: 0.9914
Actinomyces naeslundii; 10 μmol/ml
  biofilm growth: OD 630 nm (crystal violet) at 48 hrs divided by OD of control: 0.4234
Actinomyces naeslundii; 20 μmol/ml
  biofilm growth: OD 630 nm (crystal violet) at 48 hrs divided by OD of control: 0.0174
Actinomyces naeslundii; 25 μmol/ml
  biofilm growth: OD 630 nm (crystal violet) at 48 hrs divided by OD of control: 0.0067
Actinomyces viscosus; 5 μmol/ml
  biofilm growth: OD 630 nm (crystal violet) at 48 hrs divided by OD of control: 1.3972
Actinomyces viscosus; 10 μmol/ml
  biofilm growth: OD 630 nm (crystal violet) at 48 hrs divided by OD of control: 1.2242
Actinomyces viscosus; 20 μmol/ml
  biofilm growth: OD 630 nm (crystal violet) at 48 hrs divided by OD of control: 0.0684
Actinomyces viscosus; 25 μmol/ml
  biofilm growth: OD 630 nm (crystal violet) at 48 hrs divided by OD of control: 0.0490
[1]; 5 μmol/ml
  biofilm growth: OD 630 nm (crystal violet) at 48 hrs divided by OD of control: 0.5867
[1]; 10 μmol/ml
  biofilm growth: OD 630 nm (crystal violet) at 48 hrs divided by OD of control: 0.3454
[1]; 20 μmol/ml
  biofilm growth: OD 630 nm (crystal violet) at 48 hrs divided by OD of control: 0.0481
[1]; 25 μmol/ml
  biofilm growth: OD 630 nm (crystal violet) at 48 hrs divided by OD of control: 0.0212
Capnocytophaga sputigena; 5 μmol/ml
  biofilm growth: OD 630 nm (crystal violet) at 48 hrs divided by OD of control: 0.1909
Capnocytophaga sputigena; 10 μmol/ml
  biofilm growth: OD 630 nm (crystal violet) at 48 hrs divided by OD of control: 0.1079
Capnocytophaga sputigena; 20 μmol/ml
  biofilm growth: OD 630 nm (crystal violet) at 48 hrs divided by OD of control: 0.1578
Capnocytophaga sputigena; 25 μmol/ml
  biofilm growth: OD 630 nm (crystal violet) at 48 hrs divided by OD of control: 0.2648
Fusobacterium nucleatum; 5 μmol/ml
  biofilm growth: OD 630 nm (crystal violet) at 48 hrs divided by OD of control: 0.2553
Fusobacterium nucleatum; 10 μmol/ml
  biofilm growth: OD 630 nm (crystal violet) at 48 hrs divided by OD of control: 0.2232
Fusobacterium nucleatum; 20 μmol/ml
  biofilm growth: OD 630 nm (crystal violet) at 48 hrs divided by OD of control: 0.0056
Fusobacterium nucleatum; 25 μmol/ml
  biofilm growth: OD 630 nm (crystal violet) at 48 hrs divided by OD of control: 0.0112
Porphyromonas gingivalis; 5 μmol/ml
  biofilm growth: OD 630 nm (crystal violet) at 48 hrs divided by OD of control: 0.7552
Porphyromonas gingivalis; 10 μmol/ml
  biofilm growth: OD 630 nm (crystal violet) at 48 hrs divided by OD of control: 0.9004
Porphyromonas gingivalis; 20 μmol/ml
  biofilm growth: OD 630 nm (crystal violet) at 48 hrs divided by OD of control: 0.1717
Porphyromonas gingivalis; 25 μmol/ml
  biofilm growth: OD 630 nm (crystal violet) at 48 hrs divided by OD of control: 0.3008
Prevotella intermedia; 5 μmol/ml
  biofilm growth: OD 630 nm (crystal violet) at 48 hrs divided by OD of control: 0.7904
Prevotella intermedia; 10 μmol/ml
  biofilm growth: OD 630 nm (crystal violet) at 48 hrs divided by OD of control: 0.1852
Prevotella intermedia; 20 μmol/ml
  biofilm growth: OD 630 nm (crystal violet) at 48 hrs divided by OD of control: 0.2103
Prevotella intermedia; 25 μmol/ml
  biofilm growth: OD 630 nm (crystal violet) at 48 hrs divided by OD of control: 0.2516
Streptococcus gordonii; 5 μmol/ml
  biofilm growth: OD 630 nm (crystal violet) at 48 hrs divided by OD of control: 1.8315
Streptococcus gordonii; 10 μmol/ml
  biofilm growth: OD 630 nm (crystal violet) at 48 hrs divided by OD of control: 1.7019
Streptococcus gordonii; 20 μmol/ml
  biofilm growth: OD 630 nm (crystal violet) at 48 hrs divided by OD of control: 0.6462
Streptococcus gordonii; 25 μmol/ml
  biofilm growth: OD 630 nm (crystal violet) at 48 hrs divided by OD of control: 0.2237
Streptococcus mitis; 5 μmol/ml
  biofilm growth: OD 630 nm (crystal violet) at 48 hrs divided by OD of control: 0.7237
Streptococcus mitis; 10 μmol/ml
  biofilm growth: OD 630 nm (crystal violet) at 48 hrs divided by OD of control: 0.0179
Streptococcus mitis; 20 μmol/ml
  biofilm growth: OD 630 nm (crystal violet) at 48 hrs divided by OD of control: 0.0264
Streptococcus mitis; 25 μmol/ml
  biofilm growth: OD 630 nm (crystal violet) at 48 hrs divided by OD of control: 0.1018
Streptococcus mutans; 5 μmol/ml
  biofilm growth: OD 630 nm (crystal violet) at 48 hrs divided by OD of control: 0.0781
Streptococcus mutans; 10 μmol/ml
  biofilm growth: OD 630 nm (crystal violet) at 48 hrs divided by OD of control: 0.5693
Streptococcus mutans; 20 μmol/ml
  biofilm growth: OD 630 nm (crystal violet) at 48 hrs divided by OD of control: 1.2009
Streptococcus mutans; 25 μmol/ml
  biofilm growth: OD 630 nm (crystal violet) at 48 hrs divided by OD of control: 0.4072
Streptococcus salivarius; 5 μmol/ml
  biofilm growth: OD 630 nm (crystal violet) at 48 hrs divided by OD of control: 1.4007
Streptococcus salivarius; 10 μmol/ml
  biofilm growth: OD 630 nm (crystal violet) at 48 hrs divided by OD of control: 1.0359
Streptococcus salivarius; 20 μmol/ml
  biofilm growth: OD 630 nm (crystal violet) at 48 hrs divided by OD of control: 0.8978
Streptococcus salivarius; 25 μmol/ml
  biofilm growth: OD 630 nm (crystal violet) at 48 hrs divided by OD of control: 0.7342
Streptococcus sanguinis; 5 μmol/ml
  biofilm growth: OD 630 nm (crystal violet) at 48 hrs divided by OD of control: 1.2254
Streptococcus sanguinis; 10 μmol/ml
  biofilm growth: OD 630 nm (crystal violet) at 48 hrs divided by OD of control: 1.0551
Streptococcus sanguinis; 20 μmol/ml
  biofilm growth: OD 630 nm (crystal violet) at 48 hrs divided by OD of control: 0.5417
Streptococcus sanguinis; 25 μmol/ml
  biofilm growth: OD 630 nm (crystal violet) at 48 hrs divided by OD of control: 0.4820
Tannerella forsythia; 5 μmol/ml
  biofilm growth: OD 630 nm (crystal violet) at 48 hrs divided by OD of control: 0.5744
Tannerella forsythia; 10 μmol/ml
  biofilm growth: OD 630 nm (crystal violet) at 48 hrs divided by OD of control: 0.3083
Tannerella forsythia; 20 μmol/ml
  biofilm growth: OD 630 nm (crystal violet) at 48 hrs divided by OD of control: 0.0188
Tannerella forsythia; 25 μmol/ml
  biofilm growth: OD 630 nm (crystal violet) at 48 hrs divided by OD of control: 0.0254
Veillonella parvula; 5 μmol/ml
  biofilm growth: OD 630 nm (crystal violet) at 48 hrs divided by OD of control: 0.3257
Veillonella parvula; 10 μmol/ml
  biofilm growth: OD 630 nm (crystal violet) at 48 hrs divided by OD of control: 0.3136
Veillonella parvula; 20 μmol/ml
  biofilm growth: OD 630 nm (crystal violet) at 48 hrs divided by OD of control: 0.1638
Veillonella parvula; 25 μmol/ml
  biofilm growth: OD 630 nm (crystal violet) at 48 hrs divided by OD of control: 0.2969
[2]; 5 μmol/ml
  prebiotic effects (biofilm growth): exhibited prebiotic effects
[2]; 10 μmol/ml
  prebiotic effects (biofilm growth): exhibited prebiotic effects
